Patent US12378320B2, “Methods for treating pancreatitis” (Cold Spring Harbor Laboratory, priority 2018, dated 2025)

Assays:
C57Bl/6J mice [1] = type: in vivo; details: Sucrose or Dox Sucrose, Vehicle or Erlotinib
Procedure: KPC mice (Kras^+/LSL-G12D; Trp53^+/R172H; Pdx1-Cre) have been described previously (Hingorani S R, et al., Cancer Cell. 2003; 4(6):437-50; Hingorani S R, et al., Cancer Cell. 2005; 7(5):469-83) and were backcrossed onto the C57Bl/6J background (The Jackson Laboratory, strain 000664). All animal experiments were conducted in accordance with procedures approved by the IACUC at Cold Spring Harbor Laboratory. Mice were enrolled onto experimental studies between 6 and 8 weeks of age. Mice were administered Doxycycline through drinking water (0.5-2 mg/ml) supplemented with 10 mg/ml Sucrose for study durations up to one week. Doxycycline was administered through chow for experimental studies longer than one week, which is designed to deliver 2-3 mg of doxycycline per day based on the consumption of 4-5 g/day per mouse (Harlan Teklad, dietTD.01306, Doxycycline 625 mg). […] Blood glucose levels were measured using the ACCU-CHECK Nano (Roche) on the 414 lateral saphenous vein.
Amylase and Lipase levels in plasma (lithium heparin, BD biosciences) was measured by IDEXX Pathology services. CA19-9 levels were measured using the human cancer biomarker assay (EMD Millipore) on the MagPIX multiplex ELISA platform (Luminex). Blood glucose levels were measured using an Accu-Chek Nano monitor (Roche) on the lateral saphenous vein. […]

C^PDX;R^LSL;F mice = assay: CA19-9 mediated pancreatitis in Dox-treated C^PDX;R^LSL;F mice (H&E, serum amylase and lipase, pEGFR IHC); type: in vivo, mouse
Procedure: All animal experiments were conducted in accordance with procedures approved by the IACUC at Cold Spring Harbor Laboratory. Mice were enrolled onto experimental studies between 6 and 8 weeks of age. Mice were administered Doxycycline through drinking water (0.5-2 mg/ml) supplemented with 10 mg/ml Sucrose for study durations up to one week. […] EdU (300 μg, Santa Cruz) was intraperitoneally administered bi-daily for three consecutive days. Cerulein was administered in 8 hourly doses of 200 μl (10 μg/ml) intraperitoneally for 48 hours and C57Bl/6J mice were allowed to recover for 24 or 72 hours.
Formalin-fixed, paraffin-embedded blocks were sectioned and de-paraffinized. Antigen retrieval was performed in Citrate buffer for 6 minutes in a pressure cooker unless otherwise specified. […] The slides were then rinsed in tap water and transferred to the Cadenza system. Slides were blocked in 3% BSA in TBST for one hour at room temperature and incubated in primary antibody overnight. Slides were washed three times in TBST, then incubated in horse radish peroxidase-conjugated secondary antibody for one hour at room temperature. The slides were washed three times in TBST and disassembled from the Cadenza system. ImmPACT DAB (Vector) was incubated for 1-10 minutes followed by a water wash and incubation in Hematoxylin counterstain. The slides were then dehydrated and coverslipped in cytoseal 60.
Slides were scanned using an Aperio CS2 scanner (Leica) and the total occupied pixel area was calculated in Imagescope (Leica). Affected pancreatitis areas on H&E stained slides were manually annotated and the uninvolved and affected areas were measured. Pancreatitis areas were defined by the presence of infiltrating lymphocytes, acinar intralobular swelling, acinar to ductal metaplasia, fibrosis and fat cell replacement. The number of Ki67-positive nuclei were counted manually in five representative high-powered fields from least four animals per group.
Amylase and Lipase levels in plasma (lithium heparin, BD biosciences) was measured by IDEXX Pathology services. CA19-9 levels were measured using the human cancer biomarker assay (EMD Millipore) on the MagPIX multiplex ELISA platform (Luminex). Blood glucose levels were measured using an Accu-Chek Nano monitor (Roche) on the lateral saphenous vein. […] The CA19-9 coated plates were washed in 0.05% Tween 20 in PBS and blocked in 1% BSA in wash buffer before incubation 10 μl of mouse plasma in a final volume of 100 μl of blocking buffer

C57Bl/6J mice [2] = assay: Cerulein model of acute pancreatitis, immune cell types by flow cytometry; type: in vivo, mouse; details: for immune cell type representation in the spleen or lymph nodes / immune cells in the pancreas following induction of pancreatitis: flow cytometry
Procedure: KPC mice (Kras^+/LSL-G12D; Trp53^+/R172H; Pdx1-Cre) have been described previously (Hingorani S R, et al., Cancer Cell. 2003; 4(6):437-50; Hingorani S R, et al., Cancer Cell. 2005; 7(5):469-83) and were backcrossed onto the C57Bl/6J background (The Jackson Laboratory, strain 000664). All animal experiments were conducted in accordance with procedures approved by the IACUC at Cold Spring Harbor Laboratory. Mice were enrolled onto experimental studies between 6 and 8 weeks of age. Mice were administered Doxycycline through drinking water (0.5-2 mg/ml) supplemented with 10 mg/ml Sucrose for study durations up to one week. Doxycycline was administered through chow for experimental studies longer than one week, which is designed to deliver 2-3 mg of doxycycline per day based on the consumption of 4-5 g/day per mouse (Harlan Teklad, dietTD.01306, Doxycycline 625 mg). EdU (300 μg, Santa Cruz) was intraperitoneally administered bi-daily for three consecutive days. Cerulein was administered in 8 hourly doses of 200 μl (10 μg/ml) intraperitoneally for 48 hours and C57Bl/6J mice were allowed to recover for 24 or 72 hours. Blood glucose levels were measured using the ACCU-CHECK Nano (Roche) on the 414 lateral saphenous vein.
Spleens and lymph nodes were mechanically dissociated, homogenized, and passed through a nylon cell strainer (BD Falcon) in FACS buffer (eBioscience). Pancreas were mechanically dissociated and digested with 0.4 mg/mL liberase, 0.05 mg/mL collagenase D, and 0.1 mg/mL DNase I (Roche) in DMEM (Gibco) supplemented with 10% FCS at 37° C. for 30 min and suspensions were passed through a nylon cell strainer.
Staining was performed by incubating cells on a plate shaker, for 15 min at 4° C., with antibodies in FACS buffer (eBioscience). Multicolor flow cytometric analyses were performed using a LSR Fortessa cytometer (BD Biosciences). Gating strategies for all flow cytometric experiments are further described below.

C#Cc1cccc(Nc2ncnc3cc(OCCOC)c(OCCOC)cc23)c1 [Erlotinib]
relation of the effects to Erlotinib toxicity in normal mice (C57Bl/6J mice [1]): unrelated to toxicity
ability to substitute for anti-CA19-9 therapy (C^PDX;R^LSL;F mice; Erlotinib 24 hours prior to the induction of pancreatitis): unable to substitute
weight loss (C^PDX;R^LSL;F mice; Erlotinib 24 hours prior to the induction of pancreatitis, humane end point prior to study completion): more than 20%
pancreatic atrophy at necropsy (C^PDX;R^LSL;F mice; Erlotinib plus Dox): evident
vacuolization of the acinar compartment by histology (C^PDX;R^LSL;F mice; Erlotinib plus Dox): apparent

Cerulein
immune cell type representation in the spleen or lymph nodes (C57Bl/6J mice [2]): without change
immune cells in the pancreas following induction of pancreatitis (C57Bl/6J mice [2]): influx of inflammatory monocytes and macrophages
immune cell type representation in the spleen or lymph nodes (C57Bl/6J mice [2]; listed as cerulein): without any change
immune cells in the pancreas following induction of pancreatitis (C57Bl/6J mice [2]; listed as cerulein): treatment-dependent influx of inflammatory monocytes and macrophages
recruitment of T- or B-cells (C57Bl/6J mice [2]; time points examined 1-3 days): Neither model exhibited recruitment
